Experiments:
Assay type in all cases: cell-based, human
HEK293 T cells [1] = experiment: Gene correction by NHEJ repair at GSD1a locus with dsDNA donors; conditions: dsDNA donor 50-0 or 150-0, 2.5 μM Nu7441, 1.25 μM SCR7 or 10 μM RS-1, vs DMSO alone, FIG. 3
Experimental: The effect of Nu7441 treatment on gene correction by the NHEJ pathway was also evaluated. To do so, the cells were transfected with two different dsDNA donors: 50-0 (SEQ ID NO: 37) or 150-0 (SEQ ID NO: 38). Cells were edited with 1.5 μg dsDNA donor. These dsDNA donors, lacking homology arms, introduce a second 3′ splice site into exon 2 at the GSD1a locus when inserted into the cut site induced by the Cas9-guide complex by NHEJ repair. The cells were treated with 2.5 μM Nu7441, 1.25 μM SCR7, or 10 μM RS-1 and gene correction by NHEJ repair was evaluated. […] Treatment with SCR7 or RS-1 had no effect over DMSO alone.

HEK293 T cells [2] = experiment: HDR gene-editing at GSD1a locus with ssODN homology donors; conditions: for HDR efficiency: 1.25 μM SCR7 or 10 μM RS-1, FIG. 3
Experimental: 2×10^5 cells were edited with 1 μM Cas9 and 1.5 μM gRNA. The cells were transfected with two different ssODNs homology donors: 93-50 (SEQ ID NO: 39) or 25-100 (SEQ ID NO: 40). These two ssODN donors contain homology arms spanning both sides of the double-stranded break induced by the Cas9-guide and facilitate correction of a point mutation in the G6PC gene sequence by HDR. Cells were edited with 100 μM ssODN. The cells were treated with 2.5 μM Nu7441, 1.25 μM SCR7, or 10 μM RS-1 and the effect on HDR efficiency was evaluated.

HEK293 T cells [3] = experiment: Indel formation at GFP gene in AAVS1 locus by TIDE analysis; conditions: regardless of ssODN or gRNA, compared to DMSO control, FIG. 2C-2D
Experimental: The effect of DNA PK inhibition by Nu7441 correction of a DSB by the NHEJ pathway (e.g., introduce an indel at the DSB site) or HDR pathway (e.g., introduce a gene mutation encoded by a homology donor at the DSB site) was assessed using the reporter system described in Example 1. In this case gene-editing was evaluated in HEK293 T cells expressing GFP in the AAVS1 locus. To introduce a gene edit that converts GFP to BFP, cells were electroporated with ribonucleoprotein (RNP) comprised of Cas9 and gRNA1 (GFP target sequence identified by SEQ ID NO: 9; sgRNA spacer sequence identified by SEQ ID NO: 10) or gRNA2 (GFP target sequence identified by SEQ ID NO: 11; sgRNA spacer identified by SEQ ID NO: 12) that targets the GFP gene encoded in the AAVS1 locus. The cells were also transfected with ssODNs that encoded the gene correction necessary to convert GFP to BFP and homology arms complimentary to the sequence upstream and downstream of the target gene cut site. The efficiency of HDR repair was determined by measuring the level of cell BFP fluorescence. The efficiency of cutting (indel information) was monitored by TIDE analysis.
Shown in FIGS. 2C-2D is a measure of indel formation performed by TIDE analysis for the same edits that are described for FIGS. 2A-2B. […] Thus, the DNA PK inhibitor Nu7441 achieves reduced repair of a DSB by the NHEJ pathway when a homology donor is provided.

Compound | gene correction by NHEJ repair (HEK293 T cells [1]) | fold increase in HDR efficiency (HEK293 T cells [2]; 2.5 μM Nu7441, over DMSO alone, FIG. 3) | indel formation at the DSB site (HEK293 T cells [3]) | HDR efficiency (HEK293 T cells [2])
O=c1cc(N2CCOCC2)oc2c(-c3cccc4c3sc3ccccc34)cccc12 [Nu7441] | substantial decrease | approximately 1.7 fold | decreased | –
O=C(Nc1ccc(Br)cc1)c1ccc(Br)c(S(=O)(=O)NCc2ccccc2)c1 [RS-1] | no effect | – | reduction | no effect
O=c1[nH]c(=S)[nH]c(N=Cc2ccccc2)c1N=Cc1ccccc1 [SCR7] | no effect | – | reduction | no effect

Reference: patent publication US20210008161A1, “METHODS AND COMPOSITIONS FOR IMPROVED HOMOLOGY DIRECTED REPAIR” (CRISPR THERAPEUTICS AG, priority 2019, published 2021)
